Measured values from patent US11234960B2, “Compositions and methods for improving mitochondrial function and treating neurodegenerative diseases and cognitive disorders” (Amazentis SA, priority 2010, dated 2022).

Columns and labels:
[1] = tested on: primary dopaminergic tyrosine hydroxylase (TH)-positive neurons; test: Neurite outgrowth in primary dopaminergic TH-positive neurons; type: cell-based, rat; conditions: 72 h; compounds 0.1 μM, SP600125 10 μM, dbcAMP 1 mM (FIG. 14)
Method: Primary mesencephalic cultures were prepared from rat E14 embryos. Ventral mesencephalon was carefully dissected and dissociated. Cells were then plated in DMEM F12 medium containing 10% heat inactivated horse serum at the density of 100,000 cells/well (96-well plate), with or without the JNK-specific inhibitor SP600125 (10 μM) (which served as a negative control) or dbcAMP (1 mM) (which served as a positive control), or the compounds tested each at the doses of 0.1 μM.
72 h after plating, the effects on the neurite outgrowth of dopaminergic tyrosine hydroxylase (TH)-positive neurons were measured from images acquired by automated confocal microscopy (X4 objective, montage 4×4) and covering the entire well surface, and quantified using the Neurite outgrowth module of Metamorph® software. Several representative parameters of neurite outgrowth were thus generated: total and mean outgrowth, total and mean number of processes per cell, and total and percentage of cells with extensive outgrowth (defined as outgrowth longer than 20 μm) were analyzed. All experiments were performed in quadruplicate.

PC-12 cells = test: Neurite outgrowth in NGF-differentiated PC-12 cells; type: cell-based, rat; conditions: 0.5 μM
Method: The ellagitannins and their metabolites tested in the assays were synthesized or purchased from suppliers which included Funakoshi, Sigma, and Chemos. Stock solutions were aliquoted and stored at −20° C.
PC-12 cells (ATCC CRL-1721) were cultured at 37° C., 5% CO2 in poly L-lysine-coated culture flasks in complete culture medium (RPMI 1640+10% heat-inactivated horse serum+5% fetal bovine serum).
Cell differentiation was performed in culture flasks 24 h after plating, in complete medium supplemented with 100 ng/mL NGF (2.5 S NGF, Invitrogen). The NGF-supplemented medium was renewed every third day, and differentiation was induced over an 8-day period.
All compounds to be tested were prepared just before the experiment as a 50 mM stock solution in dimethylsulfoxide (DMSO). The final DMSO concentration was 0.1% in the medium of all experimental groups.
For neurite outgrowth measurements, differentiated cells were washed with phosphate-buffered saline (PBS), collected after detachment and replated at a density of 5,000 cells/well (biocoat imaging 96 well plate) in complete medium supplemented with 100 ng/mL NGF, with or without 10 μM SP600125 (negative control), 1 mM dbcAMP (positive control), or tested compound at 5×10^−7 M. In the undifferentiated control group, no NGF was added after replating.
After 72 h in culture, PC-12 cells were washed with PBS and fixed in 1% paraformaldehyde solution for 20 minutes. After 3 washes with PBS, immunofluorescence labeling was performed with Texas Red Maleimide probe, which reacts with thiol groups of cysteine residues of proteins, permitting the visualization of the entire cell morphology, including neurites.
Immunofluorescence analysis was performed in automated confocal microscopy. Images were acquired with a BD pathway 855 system, under X20 objective with 8×8 field montage. Neurite outgrowth was then measured from acquired images with the neurite module of Metamorph® software. Total and mean outgrowth, total and mean number of processes per cell, and total and percentage of cells with extensive outgrowth (defined as outgrowth longer than 20 μm) were analyzed.

Row | SMILES | increase in branching [1] | percent of cells showing significant outgrowth (>20 μm), increase vs differentiated cells (PC-12 cells; 72 h (FIG. 8)) | number of processes (in words) (PC-12 cells; 72 h, differentiated PC-12 cells)
1 | Oc1c2ccccc2c2c3c(cccc13)N=N2 [SP600125] | 60% | – | –
2 | CCCC(=O)Nc1ncnc2c1ncn2[C@@H]1O[C@@H]2COP(=O)(O)O[C@H]2[C@H]1OC(=O)CCC [dbcAMP, dibutyryl cyclic AMP] | 86% | – | –
3 | O=C1OC[C@H]2OC(O)[C@H](O)[C@@H](O)[C@@H]2OC(=O)c2cc(O)c(O)c(O)c2-c2c(O)c(O)c3oc(=O)c4c(c(O)c(O)c5oc(=O)c2c3c54)-c2c1cc(O)c(O)c2O (mixture of isomers) [punicalin] | – | 26% | induced an increase in the number of processes
